Reference: patent publication US6481154B1, “Method of large-scale propagation of trees of genus Swietenia” (Sumitomo Forestry Co., Ltd., priority 2000, dated 2002)

System: terminal buds of Swietenia macrophylla
Assay: Induction of multiple shoots from terminal buds on modified B5 medium
Format: cell-based
Conditions: IBA 0 mg/l
Procedure: Terminal buds were excised from mature trees of Swietenia macrophylla and subjected to surface sterilization in 70% ethanol for 30 seconds and then in 2% sodium hypochlorite for 6 minutes, washed several times with sterilized water and dried on a sterilized filter paper.
To a modified B5 medium (which was a B5 medium amounts of all the components were each made a half were added 30 g/l of sucrose, and 0 to 0.02 mg/l of IBA and 0.02 to 1.0 mg/l of BAP as plant growth regulators, followed by pH adjustment to 5.7 and sterilization. The medium so prepared was used as a multiple shoots-inducing medium, and was used at a culturing temperature of 26±2° C. under illumination of fluorescent lamps for 16 hours per day (3,000 to 9,000 Lux). One to 3 months after the start of culturing, multiple shoots were induced.

c1ccc(CNc2ncnc3[nH]cnc23)cc1 [BAP, benzylaminopurine]
Number of formed multiple shoots/Number of total tested terminal buds (BAP 0.02 mg/l): 1/20
Number of formed multiple shoots/Number of total tested terminal buds (BAP 0.2 mg/l): 5/20
Number of formed multiple shoots/Number of total tested terminal buds (BAP 1.0 mg/l): 8/20
